Test results taken from patent US20240287046A1, “COMPOUNDS AND RADIOLIGANDS FOR TARGETING NEUROTENSIN RECEPTOR AND USES THEREOF” (Full-Life Technologies HK Limited, priority 2022, published 2024).

Columns and labels:
HT-29 tumor-bearing mice = assay: Biodistribution of radionuclide labeled complexes in HT-29 tumor-bearing mice; type: in vivo, BALB/c nude mice
Experimental: The BALB/c nude mice (Charles River, Beijing) were utilized to establish the xenografted model for biodistribution study. All animal care and experimental procedure were performed by following the animal protocols approved by the ethics committee of China Institute of Radiation Protection.
Briefly, each mouse was inoculated with approximately 4×10^6 ASPC-1 cells (human pancreatic cancer cell line) or HT-29 cells (human colorectal adenocarcinoma cell line) expressing human NTSR-1 by subcutaneous injection at rear flank. After inoculation, the xenografted tumors were allowed to grow for ˜2-4 weeks till the tumor weight reached to about 0.05 to 0.50 g (0.20 g in average).
Biodistribution studies were performed by administrating the radionuclide labeled test compound at a dose of ˜30-50 μCi (100 μL in 0.9% NaCl, ˜1.11-1.85 MBq, with specific activity 30-250 μCi/nmol) to each animal through tail vein injection.
At different time points after the administration, the mice treated with each compound were euthanized. The tissues and organs of the animals in each group were collected, excised, weighed, and analyzed in a PerkinElmer 2480 WIZARD2γ counter, and the percent injected dose (% ID) and % ID/g of each organ or tissue were calculated.

[1] = system: ASPC-1 tumor-bearing mice; assay: Biodistribution of radionuclide labeled complexes in ASPC-1 tumor-bearing mice; type: in vivo, BALB/c nude mice
Outline: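 Radiolabeled compound (~30-50 μCi, ~1.11-1.85 MBq, specific activity 30-250 μCi/nmol) was injected i.v. via tail vein into nude mice carrying 0.05-0.50 g subcutaneous NTSR-1-positive human tumors. At set times, tissues were collected, weighed and γ-counted; % ID and % ID/g were calculated.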

[2] = system: ASPC-1 tumor-bearing mice; assay: SPECT/CT imaging of ^177Lu-labeled complexes; type: in vivo; conditions: over 72 hours
Experimental: ASPC-1 tumor-bearing mice were IV-injected with about 120 μCi of ^177Lu-labeled complexes, then anesthetized under 2% isoflurane/oxygen gas and placed on the scanner. SPECT/CT images were acquired in three bed positions for 30 min using a MILabs SPECT scanner. Whole-body SPECT images were acquired at 1 h, 4 h, 24 and 72 h after injecting the radiotracers.

% ID/g (1 h) Blood (HT-29 tumor-bearing mice; Blood, 1 h): 20.4 ± 1.06 % ID/g | % ID/g (4 h) Blood (HT-29 tumor-bearing mice; Blood, 4 h): 9.07 ± 1.42 % ID/g | % ID/g (24 h) Blood (HT-29 tumor-bearing mice; Blood, 24 h): 0.07 ± 0.02 % ID/g | % ID/g (72 h) Blood (HT-29 tumor-bearing mice; Blood, 72 h): 0.09 ± 0.07 % ID/g | % ID/g (120 h) Blood (HT-29 tumor-bearing mice; Blood, 120 h): 0.01 ± 0 % ID/g | % ID/g (1 h) Femur (HT-29 tumor-bearing mice; Femur, 1 h): 1.84 ± 1.19 % ID/g | % ID/g (4 h) Femur (HT-29 tumor-bearing mice; Femur, 4 h): 0.99 ± 0.18 % ID/g | % ID/g (24 h) Femur (HT-29 tumor-bearing mice; Femur, 24 h): 0.29 ± 0.1 % ID/g | % ID/g (72 h) Femur (HT-29 tumor-bearing mice; Femur, 72 h): 0.73 ± 0.82 % ID/g | % ID/g (120 h) Femur (HT-29 tumor-bearing mice; Femur, 120 h): 0.13 ± 0.05 % ID/g | % ID/g (1 h) Heart (HT-29 tumor-bearing mice; Heart, 1 h): 5.76 ± 1.66 % ID/g | % ID/g (4 h) Heart (HT-29 tumor-bearing mice; Heart, 4 h): 3.15 ± 0.43 % ID/g | % ID/g (24 h) Heart (HT-29 tumor-bearing mice; Heart, 24 h): 0.31 ± 0.07 % ID/g | % ID/g (72 h) Heart (HT-29 tumor-bearing mice; Heart, 72 h): 0.89 ± 0.56 % ID/g | % ID/g (120 h) Heart (HT-29 tumor-bearing mice; Heart, 120 h): 0.13 ± 0.02 % ID/g | % ID/g (1 h) Intestine (HT-29 tumor-bearing mice; Intestine, 1 h): 2.59 ± 0.76 % ID/g | % ID/g (4 h) Intestine (HT-29 tumor-bearing mice; Intestine, 4 h): 1.7 ± 0.53 % ID/g | % ID/g (24 h) Intestine (HT-29 tumor-bearing mice; Intestine, 24 h): 0.7 ± 0.39 % ID/g | % ID/g (72 h) Intestine (HT-29 tumor-bearing mice; Intestine, 72 h): 1.33 ± 0.88 % ID/g | % ID/g (120 h) Intestine (HT-29 tumor-bearing mice; Intestine, 120 h): 0.17 ± 0.06 % ID/g | % ID/g (1 h) Kidney (HT-29 tumor-bearing mice; Kidney, 1 h): 4.34 ± 2.82 % ID/g | % ID/g (4 h) Kidney (HT-29 tumor-bearing mice; Kidney, 4 h): 3.22 ± 1.54 % ID/g | % ID/g (24 h) Kidney (HT-29 tumor-bearing mice; Kidney, 24 h): 2.61 ± 0.72 % ID/g | % ID/g (72 h) Kidney (HT-29 tumor-bearing mice; Kidney, 72 h): 3.55 ± 2.21 % ID/g | % ID/g (120 h) Kidney (HT-29 tumor-bearing mice; Kidney, 120 h): 0.81 ± 0.23 % ID/g | % ID/g (1 h) Liver (HT-29 tumor-bearing mice; Liver, 1 h): 5.26 ± 1.02 % ID/g | % ID/g (4 h) Liver (HT-29 tumor-bearing mice; Liver, 4 h): 4.41 ± 1.88 % ID/g | % ID/g (24 h) Liver (HT-29 tumor-bearing mice; Liver, 24 h): 2.21 ± 0.36 % ID/g | % ID/g (72 h) Liver (HT-29 tumor-bearing mice; Liver, 72 h): 4.44 ± 3.4 % ID/g | % ID/g (120 h) Liver (HT-29 tumor-bearing mice; Liver, 120 h): 0.55 ± 0.3 % ID/g | % ID/g (1 h) Lung (HT-29 tumor-bearing mice; Lung, 1 h): 9.85 ± 2.58 % ID/g | % ID/g (4 h) Lung (HT-29 tumor-bearing mice; Lung, 4 h): 3.88 ± 1.04 % ID/g | % ID/g (24 h) Lung (HT-29 tumor-bearing mice; Lung, 24 h): 0.62 ± 0.32 % ID/g | % ID/g (72 h) Lung (HT-29 tumor-bearing mice; Lung, 72 h): 0.5 ± 0.19 % ID/g | % ID/g (120 h) Lung (HT-29 tumor-bearing mice; Lung, 120 h): 0.12 ± 0.1 % ID/g | % ID/g (1 h) Muscle (HT-29 tumor-bearing mice; Muscle, 1 h): 1.07 ± 0.14 % ID/g | % ID/g (4 h) Muscle (HT-29 tumor-bearing mice; Muscle, 4 h): 0.66 ± 0.21 % ID/g | % ID/g (24 h) Muscle (HT-29 tumor-bearing mice; Muscle, 24 h): 0.12 ± 0.04 % ID/g | % ID/g (72 h) Muscle (HT-29 tumor-bearing mice; Muscle, 72 h): 0.37 ± 0.34 % ID/g | % ID/g (120 h) Muscle (HT-29 tumor-bearing mice; Muscle, 120 h): 0.06 ± 0.02 % ID/g | % ID/g (1 h) Pancreas (HT-29 tumor-bearing mice; Pancreas, 1 h): 1.18 ± 0.61 % ID/g | % ID/g (4 h) Pancreas (HT-29 tumor-bearing mice; Pancreas, 4 h): 1.01 ± 0.71 % ID/g | % ID/g (24 h) Pancreas (HT-29 tumor-bearing mice; Pancreas, 24 h): 0.15 ± 0.06 % ID/g | % ID/g (72 h) Pancreas (HT-29 tumor-bearing mice; Pancreas, 72 h): 0.51 ± 0.5 % ID/g | % ID/g (120 h) Pancreas (HT-29 tumor-bearing mice; Pancreas, 120 h): 0.05 ± 0.02 % ID/g | % ID/g (1 h) Spleen (HT-29 tumor-bearing mice; Spleen, 1 h): 1.76 ± 0.41 % ID/g | % ID/g (4 h) Spleen (HT-29 tumor-bearing mice; Spleen, 4 h): 1.22 ± 0.16 % ID/g | % ID/g (24 h) Spleen (HT-29 tumor-bearing mice; Spleen, 24 h): 0.43 ± 0.09 % ID/g | % ID/g (72 h) Spleen (HT-29 tumor-bearing mice; Spleen, 72 h): 1.61 ± 1.35 % ID/g | % ID/g (120 h) Spleen (HT-29 tumor-bearing mice; Spleen, 120 h): 0.8 ± 0.32 % ID/g | % ID/g (1 h) Stomach (HT-29 tumor-bearing mice; Stomach, 1 h): 1.29 ± 0.31 % ID/g | % ID/g (4 h) Stomach (HT-29 tumor-bearing mice; Stomach, 4 h): 1.35 ± 0.68 % ID/g | % ID/g (24 h) Stomach (HT-29 tumor-bearing mice; Stomach, 24 h): 0.29 ± 0.11 % ID/g | % ID/g (72 h) Stomach (HT-29 tumor-bearing mice; Stomach, 72 h): 0.54 ± 0.53 % ID/g | % ID/g (120 h) Stomach (HT-29 tumor-bearing mice; Stomach, 120 h): 0.07 ± 0.01 % ID/g | % ID/g (1 h) Tumor (HT-29 tumor-bearing mice; Tumor, 1 h): 9.74 ± 2.44 % ID/g | % ID/g (4 h) Tumor (HT-29 tumor-bearing mice; Tumor, 4 h): 20.7 ± 2.21 % ID/g | % ID/g (24 h) Tumor (HT-29 tumor-bearing mice; Tumor, 24 h): 17.4 ± 4.53 % ID/g | % ID/g (72 h) Tumor (HT-29 tumor-bearing mice; Tumor, 72 h): 10.02 ± 6.15 % ID/g | % ID/g (120 h) Tumor (HT-29 tumor-bearing mice; Tumor, 120 h): 6.61 ± 1.12 % ID/g | tumor AUC over 72 hours compared to ^177Lu—C2 [1]: significantly higher tumor AUC | % ID/g (4 h) Blood ([1]; Blood, 4 h): 15.51 ± 0.77 % ID/g | % ID/g (24 h) Blood ([1]; Blood, 24 h): 0.09 ± 0.01 % ID/g | % ID/g (72 h) Blood ([1]; Blood, 72 h): 0.02 ± 0 % ID/g | % ID/g (4 h) Femur ([1]; Femur, 4 h): 2.21 ± 0.63 % ID/g | % ID/g (24 h) Femur ([1]; Femur, 24 h): 0.38 ± 0.23 % ID/g | % ID/g (72 h) Femur ([1]; Femur, 72 h): 0.17 ± 0.09 % ID/g | % ID/g (4 h) Heart ([1]; Heart, 4 h): 2.82 ± 1.88 % ID/g | % ID/g (24 h) Heart ([1]; Heart, 24 h): 2.18 ± 2.71 % ID/g | % ID/g (72 h) Heart ([1]; Heart, 72 h): 0.15 ± 0.13 % ID/g | % ID/g (4 h) Intestine ([1]; Intestine, 4 h): 1.81 ± 0.87 % ID/g | % ID/g (24 h) Intestine ([1]; Intestine, 24 h): 0.82 ± 0.31 % ID/g | % ID/g (72 h) Intestine ([1]; Intestine, 72 h): 0.51 ± 0.04 % ID/g | % ID/g (4 h) Kidney ([1]; Kidney, 4 h): 4.57 ± 2.28 % ID/g | % ID/g (24 h) Kidney ([1]; Kidney, 24 h): 1.37 ± 0.17 % ID/g | % ID/g (72 h) Kidney ([1]; Kidney, 72 h): 1.29 ± 0.49 % ID/g | % ID/g (4 h) Liver ([1]; Liver, 4 h): 3.87 ± 2.36 % ID/g | % ID/g (24 h) Liver ([1]; Liver, 24 h): 1.27 ± 0.29 % ID/g | % ID/g (72 h) Liver ([1]; Liver, 72 h): 0.96 ± 0.07 % ID/g | % ID/g (4 h) Lung ([1]; Lung, 4 h): 1.841 ± 0.07 % ID/g | % ID/g (24 h) Lung ([1]; Lung, 24 h): 0.33 ± 0.06 % ID/g | % ID/g (72 h) Lung ([1]; Lung, 72 h): 0.23 ± 0.07 % ID/g | % ID/g (4 h) Muscle ([1]; Muscle, 4 h): 1.29 ± 0.37 % ID/g | % ID/g (24 h) Muscle ([1]; Muscle, 24 h): 0.17 ± 0.08 % ID/g | % ID/g (72 h) Muscle ([1]; Muscle, 72 h): 0.05 ± 0.01 % ID/g | % ID/g (4 h) Pancreas ([1]; Pancreas, 4 h): 1.57 ± 0.5 % ID/g | % ID/g (24 h) Pancreas ([1]; Pancreas, 24 h): 0.3 ± 0.24 % ID/g | % ID/g (72 h) Pancreas ([1]; Pancreas, 72 h): 0.1 ± 0.04 % ID/g | % ID/g (4 h) Spleen ([1]; Spleen, 4 h): 2.39 ± 1.4 % ID/g | % ID/g (24 h) Spleen ([1]; Spleen, 24 h): 0.63 ± 0.05 % ID/g | % ID/g (72 h) Spleen ([1]; Spleen, 72 h): 0.34 ± 0.04 % ID/g | % ID/g (4 h) Stomach ([1]; Stomach, 4 h): 3.52 ± 0.4 % ID/g | % ID/g (24 h) Stomach ([1]; Stomach, 24 h): 0.28 ± 0.2 % ID/g | % ID/g (72 h) Stomach ([1]; Stomach, 72 h): 0.15 ± 0.05 % ID/g | % ID/g (4 h) Tumor ([1]; Tumor, 4 h): 27.56 ± 12.51 % ID/g | % ID/g (24 h) Tumor ([1]; Tumor, 24 h): 36.67 ± 18.25 % ID/g | % ID/g (72 h) Tumor ([1]; Tumor, 72 h): 12.83 ± 4.23 % ID/g | ratio of tumor AUC verse normal organ AUC ([1]; compared to ^177Lu—C2): significantly improved | clearance from other organs or tissues (SPECT/CT) [2]: rapid clearance | retention in tumors (SPECT/CT) [2]: sustained retention in tumors
SMILES: COc1cccc(OC)c1-c1cc(C(=O)NC2(C(=O)O)C3CC4CC(C3)CC2C4)nn1-c1ccc(NC(=O)CCCN(C)CCCN(C)C(=O)CN2CCN(CC(=O)[O-])CCN(CC(=O)[O-])CCN(CC(=O)[O-])CC2)cc1C(C)C.[177Lu+3] (stereo not shown) [^177Lu-I-5]
